The record followed here is patent US8518973B2, “Compounds having 4-pyridylalkylthio group as a substituent” (Santen Pharmaceutical Co., Ltd., priority 2003, dated 2013).

The test has as its system VEGF-induced HUVEC growth. In words: VEGF-induced HUVEC growth reaction evaluation system (cell growth inhibitory action test). It counts as cell-based. Conditions: Homo sapiens, 72 h, 20 μg/ml test compound solution added 5 μl per well (100 μl), VEGF solution 400 ng/ml 5 μl per well, three days, absorbance at 450 nm, read-out: Cell growth inhibition rate (%). On the procedure: Cell growth inhibitory action tests were carried out using a VEGF-induced HUVEC growth reaction evaluation system (HUVEC stands for human umbilical vein endothelial cells), which is one of widely-used methods of evaluating in vitro angiogenesis inhibitory effects of drugs.
As one of widely-used methods of evaluating angiogenesis inhibitory effects of drugs, a cell growth inhibitory action test using a VEGF-induced HUVEC growth reaction evaluation system was reported in Cancer Res., 59, 99-106(1999). According to the method described in the above-mentioned literature, cell growth inhibitory action tests of the present compounds were carried out, their cell growth inhibition rates were calculated, and angiogenesis inhibitory effects of the present compounds were evaluated using the obtained rates as indexes.
Each test compound was dissolved in dimethyl sulfoxide (hereinafter abbreviated as “DMSO”), and the obtained solution was diluted with commercially available phosphoric acid buffer solution (hereinafter abbreviated as “PBS”) to prepare a 20 μg/ml test compound solution.
HUVEC was suspended in a 0.5% fetal bovine serum (hereinafter abbreviated as “FBS”)-containing F12K medium to prepare a 2×10^4 cells/ml HUVEC suspension.
VEGF was dissolved in 0.1% bovine serum albumin-containing PBS, and the obtained solution was diluted with the 0.5% FBS-containing F12K medium to prepare a 400 ng/ml VEGF solution.
• 1) The HUVEC suspension was inoculated in each amount of 100 μl into each well of a 96-well plate coated with I type collagen (2×10^3 cells per well). • 2) One day after inoculation, the test compound solution was added in an amount of 5 μl per well. • 3) One hour after adding the test compound solution, the VEGF solution was added in an amount of 5 μl per well. • 4) Three days after adding the VEGF solution, cell counting kit-8(Dojin Chemical Co., Ltd.) was added in an amount of 10 μl per well. • 5) After three hours, the above-mentioned plate was attached to an absorptiometer (multi label counter ARVO), and absorbance at 450 nm of each well suspension (hereinafter referred to as “test compound suspension”) was measured. • 6) A test was carried out in the same manner as in 1) to 5) except that 1.0% DMSO was used instead of the test compound solution.
Incubation was carried out under conditions of 37° C., 5% carbon dioxide and 95% air in an incubator throughout the above-mentioned test steps.
Cell growth inhibition rates, which are indexes of angiogenesis inhibitory effects, were calculated by the following calculation equation.
As for `O=C(Nc1ccc(F)cc1F)c1cccnc1SCc1ccncc1` [1-70, N-(2,4-Difluorophenyl)-2-(4-pyridylmethylthio)pyridine-3-carboxamide], the inhibition at 20 µg/mL (stock) was 58%. Regarding `Cc1cc(CSc2ncccc2C(=O)Nc2ccc(OC(F)(F)F)cc2)ccn1` [1-308, 2-(2-Methylpyridin-4-ylmethylthio)-N-(4-trifluoromethoxyphenyl)pyridine-3-carboxamide], the inhibition at 20 µg/mL (stock) amounted to 92%.

As to `O=C(Nc1ccc(F)c(F)c1)c1sccc1SCc1ccncc1` [1-269, N-(3,4-Difluorophenyl)-3-(4-pyridylmethylthio)thiophene-2-carboxamide], the inhibition at 20 µg/mL (stock) was 53%. For `CCCc1ccc(NC(=O)c2sccc2SCc2ccncc2)cc1` [1-270, N-(4-n-Propylphenyl)-3-(4-pyridylmethylthio)thiophene-2-carboxamide], the inhibition at 20 µg/mL (stock) was determined as 99%. Take `COc1cc(OC)c(NC(=O)c2ccccc2SCc2ccncc2)cc1Cl` [1-102, N-(5-Chloro-2,4-dimethoxyphenl)-2-(4-pyridylmethylthio)benzamide]: the inhibition at 20 µg/mL (stock) was 55%. As for `O=C(Nc1ccc(Cl)c(C(F)(F)F)c1)c1cccnc1SCc1ccncc1` [1-74, N-(4-Chloro-3-trifluoromethylphenyl)-2-(4-pyridylmethylthio)pyridine-3-carboxamide], the inhibition at 20 µg/mL (stock) is 100%. Regarding `CC(C)Oc1ccc(NC(=O)c2cccnc2SCc2ccncc2)cc1` [1-55, N-(4-Isopropoxyphenyl)-2-(4-pyridylmethylthio)pyridine-3-carboxamide], the inhibition at 20 µg/mL (stock) was 100%. `O=C(Nc1cc2ccccc2cn1)c1sccc1SCc1ccncc1` [1-274, N-(3-Isoquinolyl)-3-(4-pyridylmethylthio)thiophene-2-carboxamide]: the inhibition at 20 µg/mL (stock) was found to be 95%. On to `O=C(Nc1ccc(OC(F)(F)F)cc1)c1sccc1SCc1ccncc1` [1-273, 3-(4-Pyridylmethylthio)-N-(4-trifluoromethoxyphenyl)thiophene-2-carboxamide], for which the inhibition at 20 µg/mL (stock) was 100%. With `CNC(=O)c1cc(CSc2ncccc2C(=O)Nc2cc(C)cc(C)c2)ccn1` [7-3, N-(3,5-Dimethylphenyl)-2-(2-methylaminocarbonylpyridin-4-ylmethylthio)pyridine-3-carboxamide], the inhibition at 20 µg/mL (stock) came to 100%. For `CC(C)(C)c1ccc(NC(=O)c2cccnc2SCc2cc[n+]([O-])cc2)cc1` [4-10, N-(4-tert-Butylphenyl)-2-(1-oxopyridin-4-ylmethylthio)pyridine-3-carboxamide] the value was 100%; for `COc1ccc(NC(=O)c2cccnc2SCc2ccncc2)cc1OC` [1-72, N-(3,4-Dimethoxyphenyl)-2-(4-pyridylmethylthio)pyridine-3-carboxamide], 100%; for `Cc1cc(NC(=O)c2sccc2SCc2ccncc2)ccc1F` [1-252, N-(4-Fluoro-3-methylphenyl)-3-(4-pyridylmethylthio)thiophene-2-carboxamide], 100%. For `O=C(Nc1cc(F)cc(C(F)(F)F)c1)c1cccnc1SCc1ccncc1` [1-83, N-(3-Fluoro-5-trifluoromethylphenyl)-2-(4-pyridylmethylthio)pyridine-3-carboxamide], the inhibition at 20 µg/mL (stock) is 100%. As to `O=C(Nc1ccc2c(c1)CCC2)c1cccnc1SCc1ccnc(Cl)c1` [1-216, 2-(2-Chloropyridin-4-ylmethylthio)-N-(5-indanyl)pyridine-3-carboxamide], the inhibition at 20 µg/mL (stock) came out at 100%. Turning to `O=C(Nc1ccc(OC(F)(F)F)cc1)c1cccnc1SCc1ccnc(F)c1` [1-214, 2-(2-Fluoropyridin-4-ylmethylthio)-N-(4-trifluoromethoxyphenyl)pyridine-3-carboxamide], the inhibition at 20 µg/mL (stock) was 92%. Regarding `Cc1cc(C)cc(NC(=O)c2cccnc2SCc2ccnc(C(=O)Nc3ccc(Cl)cc3)c2)c1` [7-2, 2-[2-(4-Chlorophenylaminocarbonyl)pyridin-4-ylmethylthio]-N-(3,5-dimethylphenyl)pyridine-3-carboxamide], the inhibition at 20 µg/mL (stock) came out at 100%. For `O=C(Nc1cccc(Cl)c1)c1ccccc1SCc1ccncc1` [1-90, N-(3-Chlorophenyl)-2-(4-pyridylmethylthio)benzamide] the value was 100%; for `O=C(Nc1ccc(Cl)cc1F)c1cccnc1SCc1ccncc1` [1-69, N-(4-Chloro-2-fluorophenyl)-2-(4-pyridylmethylthio)pyridine-3-carboxamide], 95%. Regarding `Cc1ccc(NC(=O)c2sccc2SCc2ccncc2)cc1C` [1-253, N-(3,4-Dimethylphenyl)-3-(4-pyridylmethylthio)thiophene-2-carboxamide], the inhibition at 20 µg/mL (stock) was found to be 100%.

For the compound `Cc1cccc(NC(=O)c2sccc2SCc2ccncc2)c1` [1-263, N-(3-Methylphenyl)-3-(4-pyridylmethylthio)thiophene-2-carboxamide], the inhibition at 20 µg/mL (stock) came out at 100%. As to `O=C(Nc1cc2ccccc2cn1)c1ccccc1SCc1ccncc1` [1-209, N-(3-Isoquinolyl)-2-(4-pyridylmethylthio)benzamide], the inhibition at 20 µg/mL (stock) was found to be 99%. For `COc1cc(CSc2ncccc2C(=O)Nc2cc(C)cc(C)c2)ccn1` [1-300, N-(3,5-Dimethylphenyl)-2-(2-methoxypyridin-4-ylmethylthio)pyridine-3-carboxamide], the inhibition at 20 µg/mL (stock) came to 100%.

As for `CCOC(=O)Cc1ccc(NC(=O)c2cccnc2SCc2ccncc2)cc1` [1-61, N-(4-Ethoxycarbonylmethylphenyl)-2-(4-pyridylmethylthio)pyridine-3-carboxamide], the inhibition at 20 µg/mL (stock) stood at 65%.

`O=C(Nc1ccc2c(c1)CCC2)c1sccc1SCc1ccncc1` [1-283, N-(5-Indanyl)-3-(4-pyridylmethylthio)thiophene-2-carboxamide]: the inhibition at 20 µg/mL (stock) was found to be 100%. With `Cc1cc(C)cc(NC(=O)c2cccnc2SCc2ccnc(C)c2)c1` [1-307, N-(3,5-Dimethylphenyl)-2-(2-methylpyridin-4-ylmethylthio)pyridine-3-carboxamide], the inhibition at 20 µg/mL (stock) is 100%.

In the case of `COc1cc(OC)c(NC(=O)c2cccnc2SCc2ccncc2)cc1Cl` [1-85, N-(5-Chloro-2,4-dimethoxyphenyl)-2-(4-pyridylmethylthio)pyridine-3-carboxamide], the inhibition at 20 µg/mL (stock) worked out at 95%.

Turning to `O=C(Nc1cccc(Cl)c1)c1sccc1SCc1ccncc1` [1-249, N-(3 Chlorophenyl)3-(4-pyridylmethylthio)thiophene-2-carboxamide], the inhibition at 20 µg/mL (stock) came to 100%. For the compound `Cc1ccc(NC(=O)c2cccnc2SCc2cc[n+]([O-])cc2)cc1C` [4-5, N-(3,4-Dimethylphenyl)-2-(1-oxopyridin-4-ylmethylthio)pyridine-3-carboxamide], the inhibition at 20 µg/mL (stock) was determined as 100%. For `CCCCc1ccc(NC(=O)c2cccnc2SCc2ccncc2)cc1` [1-50, N-(4-n-Butylphenyl)-2-(4-pyridylmethylthio)pyridine-3-carboxamide], the inhibition at 20 µg/mL (stock) was found to be 94%. For `COc1ccc(NC(=O)c2ccccc2SCc2ccncc2)cc1OC` [1-93, N-(3,4-Dimethoxyphenyl)-2-(4-pyridylmethylthio)benzamide] the value was 72%.
